# From patent publication US12331046B2, “CTPS1 inhibitors and uses thereof” (Nimbus Clotho, Inc., priority 2020, dated 2025)
# Target: human CTPS1 (Homo sapiens (Human), UniProt P17812)
# Assay: hCTPS1 biochemical assay (ADP-Glo)
# Conditions: hCTPS1 25 nM, ATP 120 uM, UTP 160 uM, GTP 60 uM, L-Glutamine 100 uM, 25 degrees C
# Chain of human CTPS1 (P17812 whole entry): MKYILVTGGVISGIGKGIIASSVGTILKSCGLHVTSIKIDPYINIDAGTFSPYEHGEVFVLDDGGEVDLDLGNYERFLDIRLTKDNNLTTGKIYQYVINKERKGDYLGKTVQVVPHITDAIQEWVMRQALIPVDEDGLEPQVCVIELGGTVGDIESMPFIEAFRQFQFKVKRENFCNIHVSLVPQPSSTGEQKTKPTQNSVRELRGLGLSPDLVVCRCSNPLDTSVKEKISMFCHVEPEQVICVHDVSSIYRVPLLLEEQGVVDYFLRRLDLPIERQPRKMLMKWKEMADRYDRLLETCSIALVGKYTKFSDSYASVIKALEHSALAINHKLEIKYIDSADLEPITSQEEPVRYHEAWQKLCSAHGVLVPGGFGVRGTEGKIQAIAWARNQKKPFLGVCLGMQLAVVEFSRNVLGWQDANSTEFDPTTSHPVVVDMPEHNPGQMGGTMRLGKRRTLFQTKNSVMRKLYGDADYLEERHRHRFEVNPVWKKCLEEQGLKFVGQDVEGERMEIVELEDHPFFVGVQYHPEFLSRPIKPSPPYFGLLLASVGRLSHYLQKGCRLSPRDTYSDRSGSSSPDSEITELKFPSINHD
row,SMILES,IC50
1,CCOc1cncc(-c2ccc(C(=O)NCc3cc(NS(=O)(=O)C4CC4)ccn3)c(F)c2)n1 [I-25],< 0.1 µM
2,"CCOc1cncc(-c2cnc(C(=O)N[C@H](c3cc(NS(=O)(=O)C4CC4)ccn3)[C@H]3C[C@@H](N(C)C)C3)s2)n1 (single isomer, unassigned) [I-105]",< 0.1 µM
3,"CCOc1cncc(-c2cnc(C(=O)N3CCNC[C@H]3c3cc(NS(=O)(=O)C4CC4)ccn3)s2)n1 [I-211, (S)—N-(2-(1-(5-(6-ethoxypyrazin-2-yl)thiazole-2-carbonyl)piperazin-2-yl)pyridin-4-yl)cyclopropanesulfonamide]",0.1 to 1 µM
4,"CCOc1cncc(-c2ncc(C(=O)N3CCC[C@@H]3c3cc(NS(=O)(=O)C4CC4)ccn3)s2)n1 [I-76, N-[2-[(2R)-1-[2-(6-ethoxypyrazin-2-yl)-1,3-thiazole-5-carbonyl]pyrrolidin-2-yl]pyridin-4-yl]cyclopropanesulfonamide]",0.1 to 1 µM
5,"CCOc1cncc(-c2cnc(C(=O)N[C@H](CCCN(C)C)c3cc(NS(=O)(=O)C4CC4)ccn3)s2)n1 [I-156, (R)—N-(1-(4-(cyclopropanesulfonamido)pyridin-2-yl)-4-(dimethylamino)butyl)-5-(6-ethoxypyrazin-2-yl)thiazole-2-carboxamide]",< 0.1 µM
6,"CCOc1cncc(-c2cnc(C(=O)N[C@@H](CCN3CCOCC3)c3cc(NS(=O)(=O)C4CC4)ccn3)s2)n1 [I-165, (S)—N-(1-(4-(cyclopropanesulfonamido)pyridin-2-yl)-3-morpholinopropyl)-5-(6-ethoxypyrazin-2-yl)thiazole-2-carboxamide]",< 0.1 µM
7,"CCOc1cncc(-c2cnc(C(=O)N[C@@H](C[C@@H]3CCCCN3C)c3cc(NS(=O)(=O)C4CC4)ccn3)s2)n1 (single isomer, unassigned) [I-134]",0.1 to 1 µM
8,"CCOc1cncc(-c2ccc(C(=O)NCc3cc(NS(=O)(=O)CC(F)(F)F)ccn3)nc2)n1 [I-66, 5-(6-ethoxypyrazin-2-yl)-N-((4-((2,2,2-trifluoroethyl)sulfonamido)pyridin-2-yl)methyl)picolinamide]",< 0.1 µM
9,"CCOc1cncc(-c2cnc(C(=O)NCc3cc(NS(=O)(=O)C4CC4)ccn3)o2)n1 [I-56, N-((4-(cyclopropanesulfonamido)pyridin-2-yl)methyl)-5-(6-ethoxypyrazin-2-yl)oxazole-2-carboxamide]",≥ 1 µM
10,"CCOc1cncc(-c2ccc(C(=O)NCc3cc(NS(=O)(=O)C4CC4)ncn3)cc2)n1 [I-29, N-((6-(cyclopropanesulfonamido)pyrimidin-4-yl)methyl)-4-(6-ethoxypyrazin-2-yl)benzamide]",< 0.1 µM
11,"CCOc1cncc(-c2ccc(C(=O)NC3(c4cccc(NS(=O)(=O)C(F)F)c4)CC3)cc2)n1 [I-266, N-(1-(3-((difluoromethyl)sulfonamido)phenyl)cyclopropyl)-4-(6-ethoxypyrazin-2-yl)benzamide]",< 0.1 µM
12,"CCOc1cncc(-c2ccc(C(=O)NC3(c4csc(N(C)S(=O)(=O)C5CC5)n4)CC3)nc2)n1 [I-14, 5-(6-ethoxypyrazin-2-yl)-N-(1-(2-(N-methylcyclopropanesulfonamido)thiazol-4-yl)cyclopropyl)picolinamide]",≥ 1 µM
13,"CCOc1cncc(-c2cnc(C(=O)NC(C)(C)c3cccc(NS(=O)(=O)C(F)F)c3)s2)n1 [I-262, N-{2-[3-(difluoromethanesulfonamido)phenyl]propan-2-yl}-5-(6-ethoxypyrazin-2-yl)-1,3-thiazole-2-carboxamide]",< 0.1 µM
14,"CCOc1cncc(-c2cnc(C(=O)N[C@@H](CN3CCCC3)c3cc(NS(=O)(=O)C4CC4)ccn3)s2)n1 [I-198, (S)—N-(1-(4-(cyclopropanesulfonamido)pyridin-2-yl)-2-(pyrrolidin-1-yl)ethyl)-5-(6-ethoxypyrazin-2-yl)thiazole-2-carboxamide]",< 0.1 µM
15,"CCOc1cncc(-c2ccc3c(c2)CN(Cc2cc(NS(=O)(=O)C4CC4)ccn2)C3=O)n1 [I-43, N-(2-((5-(6-ethoxypyrazin-2-yl)-1-oxoisoindolin-2-yl)methyl)pyridin-4-yl)cyclopropanesulfonamide]",0.1 to 1 µM
16,"O=C(NCc1cc(NS(=O)(=O)C2CC2)ccn1)c1ncc(-c2cnn3ccccc23)s1 [I-237, N-((4-(cyclopropanesulfonamido)pyridin-2-yl)methyl)-5-(pyrazolo[1,5-a]pyridin-3-yl)thiazole-2-carboxamide]",0.1 to 1 µM
17,"CCOc1cncc(-c2ccc(C(=O)NCc3ccnc(NS(=O)(=O)N4CCC4)n3)nc2)n1 [I-82, N-((2-(azetidine-1-sulfonamido)pyrimidin-4-yl)methyl)-5-(6-ethoxypyrazin-2-yl)picolinamide]",≥ 1 µM
18,"O=C(NC1(c2csc(NS(=O)(=O)C3CC3)n2)CC1)c1ccc(-c2cnc3n2CCCC3)cc1 [I-260, N-[1-(2-cyclopropanesulfonamido-1,3-thiazol-4-yl)cyclopropyl]-4-[5H, 6H, 7H, 8H-imidazo[1,2-a]pyridin-3-yl]benzamide]",≥ 1 µM
19,O=C(NCc1cc(NS(=O)(=O)C2CC2)ccn1)c1ccc(-c2cncc(C(F)(F)F)n2)cc1F [I-254],0.1 to 1 µM
20,"CCOc1cncc(-c2cnc(C(=O)N[C@](C)(CCOC)c3cc(NS(=O)(=O)C4CC4)ccn3)s2)n1 [I-157, (R)—N-(2-(4-(cyclopropanesulfonamido)pyridin-2-yl)-4-methoxybutan-2-yl)-5-(6-ethoxypyrazin-2-yl)thiazole-2-carboxamide]",0.1 to 1 µM

row,SMILES,IC50
1,"CCOc1cncc(-c2cnc(C(=O)N[C@H](CCOC)c3cc(NS(=O)(=O)C4CC4)ccn3)s2)n1 [I-184, (R)—N-(1-(4-(cyclopropanesulfonamido)pyridin-2-yl)-3-methoxypropyl)-5-(6-ethoxypyrazin-2-yl)thiazole-2-carboxamide]",< 0.1 µM
2,"CCOc1cncc(-c2ccc(C(=O)NCc3nc(NS(=O)(=O)C4CC4)cs3)nc2)n1 [I-195, N-[(4-cyclopropanesulfonamido-1,3-thiazol-2-yl)methyl]-5-(6-ethoxypyrazin-2-yl)pyridine-2-carboxamide]",0.1 to 1 µM
3,CCOc1cncc(-c2cnc(C(=O)N[C@H](CC)c3cc(NS(=O)(=O)C4CC4)ccn3)s2)n1 [I-277],< 0.1 µM
4,"O=C(NCc1cc(NS(=O)(=O)C2CC2)ccn1)c1ncc(-c2cncc(C(F)(F)F)c2)s1 [I-251, N-((4-(cyclopropanesulfonamido)pyridin-2-yl)methyl)-5-(5-(trifluoromethyl)pyridin-3-yl)thiazole-2-carboxamide]",0.1 to 1 µM
5,"CCC[C@@H]1CCN1c1ncc(C(=O)NCc2cc(NS(=O)(=O)C3CC3)ccn2)nc1C (single isomer, unassigned) [I-58]",0.1 to 1 µM
6,CCOc1cncc(-c2cnc(C(=O)NC3(c4cc(NS(=O)(=O)C5CC5)ccn4)CCOCC3)s2)n1 [I-132],< 0.1 µM
7,"CCOc1cncc(-c2ccc(NC(=O)C(C)(C)n3ccc(NS(=O)(=O)C4CC4)n3)nc2)n1 [I-19, 2-(3-(cyclopropanesulfonamido)-1H-pyrazol-1-yl)-N-(5-(6-ethoxypyrazin-2-yl)pyridin-2-yl)-2-methylpropanamide]",0.1 to 1 µM
8,"CCOc1cncc(-c2cnc(C(=O)N3CCC[C@H]3c3ccnc(NS(=O)(=O)C4CC4)n3)s2)n1 [I-271, N-[4-[(2S)-1-[5-(6-ethoxypyrazin-2-yl)-1,3-thiazole-2-carbonyl]pyrrolidin-2-yl]pyrimidin-2-yl]cyclopropanesulfonamide]",< 0.1 µM
9,"CCOc1cncc(-c2cnc(C(=O)N[C@@H](CCCN(C)C)c3cc(NS(=O)(=O)C4CC4)ccn3)s2)n1 [I-155, (S)—N-(1-(4-(cyclopropanesulfonamido)pyridin-2-yl)-4-(dimethylamino)butyl)-5-(6-ethoxypyrazin-2-yl)thiazole-2-carboxamide]",< 0.1 µM
10,"CCOc1cncc(-c2cnc(C(=O)N[C@H](CCN(C)C)c3c(F)ccc(NS(=O)(=O)C4CC4)c3F)s2)n1 (single isomer, unassigned) [I-124]",≥ 1 µM
11,"CCOc1cncc(-c2cnc(C(=O)N3CCC[C@@H]3c3cncc(NS(=O)(=O)C4CC4)c3)s2)n1 [I-225, (R)—N-(5-(1-(5-(6-ethoxypyrazin-2-yl)thiazole-2-carbonyl)pyrrolidin-2-yl)pyridin-3-yl)cyclopropanesulfonamide]",< 0.1 µM
12,"CCOc1cncc(-c2ccc(C(=O)N3CCCC3c3ccnc(NS(=O)(=O)C4CC4)n3)nc2)n1 (stereo in doubt) [I-47, N-[4-[(2R)-1-[5-(6-ethoxypyrazin-2-yl)pyridine-2-carbonyl]pyrrolidin-2-yl]pyrimidin-2-yl]cyclopropanesulfonamide]",≥ 1 µM
13,"CCOc1cncc(-c2ccc3c(c2)CN(C2(c4csc(NS(=O)(=O)C5CC5)n4)CC2)C3=O)n1 [I-13, N-(4-(1-(5-(6-ethoxypyrazin-2-yl)-1-oxoisoindolin-2-yl)cyclopropyl)thiazol-2-yl)cyclopropanesulfonamide]",0.1 to 1 µM
14,"CCOc1cncc(-c2cnc(C(=O)N[C@H](CN3C[C@H]4C[C@@H]3CO4)c3cc(NS(=O)(=O)C4CC4)ccn3)s2)n1 [I-112, N—((R)-2-((1R,4R)-2-oxa-5-azabicyclo[2.2.1]heptan-5-yl)-1-(4-(cyclopropanesulfonamido)pyridin-2-yl)ethyl)-5-(6-ethoxypyrazin-2-yl)thiazole-2-carboxamide]",< 0.1 µM
15,CO[C@H]1CCN(c2cncc(-c3ccc(C(=O)NCc4cc(NS(=O)(=O)C5CC5)ccn4)cc3)n2)C1 (stereo in doubt) [I-45],≥ 1 µM
16,"CCOc1cncc(-n2cc(C(=O)NC3(c4cccc(NS(=O)(=O)C(F)F)c4)CC3)cn2)n1 [I-274, N-[1-[3-(difluoromethanesulfonamido)phenyl]cyclopropyl]-1-(6-ethoxypyrazin-2-yl)pyrazole-4-carboxamide]",< 0.1 µM
17,CCC(NC(=O)c1ncc(-c2cnn3ccc(Cl)cc23)s1)c1cc(NS(=O)(=O)C2CC2)ccn1 (stereo not drawn) [I-174],< 0.1 µM
18,CCOc1cncc(-c2cnc(C(=O)NC(COC)c3cc(NS(=O)(=O)C4CC4)ccn3)s2)n1 (stereo not drawn) [I-194],< 0.1 µM
19,"CCOc1cncc(-c2cnc(C(=O)N3CCNC[C@@H]3c3ccnc(NS(=O)(=O)C4CC4)n3)s2)n1 [I-167, (R)—N-(4-(1-(5-(6-ethoxypyrazin-2-yl)thiazole-2-carbonyl)piperazin-2-yl)pyrimidin-2-yl)cyclopropanesulfonamide]",≥ 1 µM
